In US11173162B2, “Bicyclic heterocycles as FGFR4 inhibitors” (Incyte Corporation, priority 2015, dated 2021):

Test system: FGFR3 enzyme
Assay: FGFR Enzymatic Assay (FRET peptide phosphorylation), FGFR3
Assay type: biochemical
Settings: IC50 ratio showing FGFR3 selectivity; Table 2A, pre-incubated for 4 hours
Protocol: The inhibitor potency of the exemplified compounds was measured in an enzyme assay that measures peptide phosphorylation using FRET measurements to detect product formation. Inhibitors were serially diluted in DMSO and a volume of 0.5 μL was transferred to the wells of a 384-well plate.
GraphPad prism3 was used to analyze the data.

FGFR1/FGFR3	FGFR4/FGFR3	Compound
>5	>10	CCN1C(=O)N(c2c(F)c(OC)cc(OC)c2F)Cc2cnc(-c3ccc(C(=O)NCCO)nc3)cc21 [Example 177, 5-(3-(2,6-difluoro-3,5-dimethoxyphenyl)-1-ethyl-2-oxo-1,2,3,4-tetrahydropyrido[4,3-d]pyrimidin-7-yl)-N-(2-hydroxyethyl)picolinamide]
>5	>10	COc1cc(N2C(=O)N(c3c(F)c(OC)cc(OC)c3F)Cc3cnc(-c4cn(C)nc4C)cc32)ccc1C#N [Example 81, 4-(3-(2,6-difluoro-3,5-dimethoxyphenyl)-7-(1,3-dimethyl-1H-pyrazol-4-yl)-2-oxo-3,4-dihydropyrido[4,3-d]pyrimidin-1(2H)-yl)-2-methoxybenzonitrile]
>5	>3	COc1cc(OC)c(F)c(N2Cc3cnc(-c4cnn(CCN5CCC(OC)CC5)c4)cc3C3(CC3)C2=O)c1F [Example 152, 2′-(2,6-difluoro-3,5-dimethoxyphenyl)-6′-(1-(2-(4-methoxypiperidin-1-yl)ethyl)-1H-pyrazol-4-yl)-1′H-spiro[cyclopropane-1,4′-[2,7]naphthyridin]-3′(2′H)-one]
>10	>10	COc1cc(CN2C(=O)N(c3c(F)c(OC)cc(OC)c3F)Cc3cnc(-c4cn(C)nc4C)cc32)ccn1 [Example 58, 3-(2,6-difluoro-3,5-dimethoxyphenyl)-7-(1,3-dimethyl-1H-pyrazol-4-yl)-1-((2-methoxypyridin-4-yl)methyl)-3,4-dihydropyrido[4,3-d]pyrimidin-2(1H)-one]
>5	>3	COc1cc(OC)c(F)c(N2Cc3cnc(-c4cnn(C5(C#N)CCC5)c4C)cc3C3(CC3)C2=O)c1F [Example 149, 1-(4-(2′-(2,6-difluoro-3,5-dimethoxyphenyl)-3′-oxo-2′,3′-dihydro-1′H-spiro[cyclopropane-1,4′-[2,7]naphthyridine]-6′-yl)-5-methyl-1H-pyrazol-1-yl)cyclobutanecarbonitrile]
>10	>10	COc1cc(OC)c(F)c(N2Cc3cnc(-c4ccc(C5(C#N)CCC5)nc4)cc3N(Cc3nnc(C)o3)C2=O)c1F [Example 187, 1-(5-{3-(2,6-difluoro-3,5-dimethoxyphenyl)-1-[(5-methyl-1,3,4-oxadiazol-2-yl)methyl]-2-oxo-1,2,3,4-tetrahydropyrido[4,3-d]pyrimidin-7-yl}pyridin-2-yl)cyclobutanecarbonitrile]
>5	>5	CCN1C(=O)N(c2c(F)c(OC)cc(OC)c2F)Cc2cnc(-c3ccc(CN4CC[C@H](C#N)C4)cc3)cc21 [Example 25, (S)-1-(4-(3-(2,6-difluoro-3,5-dimethoxyphenyl)-1-ethyl-2-oxo-1,2,3,4-tetrahydropyrido[4,3-d]pyrimidin-7-yl)benzyl)pyrrolidine-3-carbonitrile]
>5	>10	COc1cc(OC)c(F)c(N2Cc3cnc(-c4cn(C)nc4C)cc3N(Cc3ccc(F)c(F)c3)C2=O)c1F [Example 73, 3-(2,6-difluoro-3,5-dimethoxyphenyl)-1-(3,4-difluorobenzyl)-7-(1,3-dimethyl-1H-pyrazol-4-yl)-3,4-dihydropyrido[4,3-d]pyrimidin-2(1H)-one]
>3	>5	COc1cc(OC)c(F)c(N2Cc3cnc(-c4cn(C)nc4C)cc3N(CCc3cnn(C)c3)C2=O)c1F [Example 114, 3-(2,6-difluoro-3,5-dimethoxyphenyl)-7-(1,3-dimethyl-1H-pyrazol-4-yl)-1-(2-(1-methyl-1H-pyrazol-4-yl)ethyl)-3,4-dihydropyrido[4,3-d]pyrimidin-2(1H)-one]
>5	>10	CCc1nnc(CN2C(=O)N(c3c(F)c(OC)cc(OC)c3F)Cc3cnc(-c4cn(C)nc4C)cc32)o1 [Example 67, 3-(2,6-difluoro-3,5-dimethoxyphenyl)-7-(1,3-dimethyl-1H-pyrazol-4-yl)-1-((5-ethyl-1,3,4-oxadiazol-2-yl)methyl)-3,4-dihydropyrido[4,3-d]pyrimidin-2(1H)-one]
>3	>5	COc1cnc(N2C(=O)N(c3c(F)c(OC)cc(OC)c3F)Cc3cnc(-c4cn(C)nc4C)cc32)cn1 [Example 112, 3-(2,6-difluoro-3,5-dimethoxyphenyl)-7-(1,3-dimethyl-1H-pyrazol-4-yl)-1-(5-methoxypyrazin-2-yl)-3,4-dihydropyrido[4,3-d]pyrimidin-2(1H)-one]
>5	>10	COc1cc(OC)c(F)c(N2Cc3cnc(-c4cn(C)nc4C)cc3N(Cc3ccccn3)C2=O)c1F [Example 94, 3-(2,6-difluoro-3,5-dimethoxyphenyl)-7-(1,3-dimethyl-1H-pyrazol-4-yl)-1-(pyridin-2-ylmethyl)-3,4-dihydropyrido[4,3-d]pyrimidin-2(1H)-one]
>5	>10	COc1cc(OC)c(F)c(N2Cc3cnc(-c4cn(C)nc4C)cc3N(c3cncc(C)n3)C2=O)c1F [Example 87, 3-(2,6-difluoro-3,5-dimethoxyphenyl)-7-(1,3-dimethyl-1H-pyrazol-4-yl)-1-(6-methylpyrazin-2-yl)-3,4-dihydropyrido[4,3-d]pyrimidin-2(1H)-one]
>5	>5	COc1cc(OC)c(F)c(N2Cc3cnc(-c4cn(C)nc4C)cc3N(C3CCOC3)C2=O)c1F (stereo not shown) [Example 33, 3-(2,6-difluoro-3,5-dimethoxyphenyl)-7-(1,3-dimethyl-1H-pyrazol-4-yl)-1-(tetrahydrofuran-3-yl)-3,4-dihydropyrido[4,3-d]pyrimidin-2(1H)-one]
>5	>5	COc1cc(OC)c(F)c(N2Cc3cnc(-c4cn(C)nc4C)cc3N(C3CC3)C2=O)c1F [Example 83, 1-cyclopropyl-3-(2,6-difluoro-3,5-dimethoxyphenyl)-7-(1,3-dimethyl-1H-pyrazol-4-yl)-3,4-dihydropyrido[4,3-d]pyrimidin-2(1H)-one]
>5	>5	COc1cc(OC)c(F)c(N2Cc3cnc(-c4cn(C)nc4C)cc3N(C3(C#N)CC3)C2=O)c1F [Example 91, 1-(3-(2,6-difluoro-3,5-dimethoxyphenyl)-7-(1,3-dimethyl-1H-pyrazol-4-yl)-2-oxo-3,4-dihydropyrido[4,3-d]pyrimidin-1(2H)-yl)cyclopropanecarbonitrile]
>3	>5	COc1cc(OC)c(F)c(N2Cc3cnc(-c4cn(C)nc4C)cc3N(c3ncccn3)C2=O)c1F [Example 105, 3-(2,6-difluoro-3,5-dimethoxyphenyl)-7-(1,3-dimethyl-1H-pyrazol-4-yl)-1-(pyrimidin-2-yl)-3,4-dihydropyrido[4,3-d]pyrimidin-2(1H)-one]
>5	>5	COc1cc(OC)c(F)c(N2Cc3cnc(-c4cn(C)nc4C)cc3N(Cc3ccc(C#N)nc3)C2=O)c1F [Example 74, 5-((3-(2,6-difluoro-3,5-dimethoxyphenyl)-7-(1,3-dimethyl-1H-pyrazol-4-yl)-2-oxo-3,4-dihydropyrido[4,3-d]pyrimidin-1(2H)-yl)methyl)picolinonitrile]
>5	>5	COc1cc(OC)c(F)c(N2Cc3cnc(-c4cnn(C5CCN(C(C)=O)C5)c4)cc3C3(CC3)C2=O)c1F (stereo not shown) [Example 150, 6′-(1-(1-acetylpyrrolidin-3-yl)-1H-pyrazol-4-yl)-2′-(2,6-difluoro-3,5-dimethoxyphenyl)-1′H-spiro[cyclopropane-1,4′-[2,7]naphthyridin]-3′(2′H)-one]
>3	>5	COc1cc(OC)c(F)c(N2Cc3cnc(-c4cn(C)nc4C)cc3N(c3ccc4[nH]ncc4c3)C2=O)c1F [Example 134, 3-(2,6-difluoro-3,5-dimethoxyphenyl)-7-(1,3-dimethyl-1H-pyrazol-4-yl)-1-(1H-indazol-5-yl)-3,4-dihydropyrido[4,3-d]pyrimidin-2(1H)-one]
>10	>10	COc1cc(OC)c(F)c(N2Cc3cnc(-c4cn(C)nc4C)cc3N(Cc3cnn(C4CC4)c3)C2=O)c1F [Example 124, 1-((1-cyclopropyl-1H-pyrazol-4-yl)methyl)-3-(2,6-difluoro-3,5-dimethoxyphenyl)-7-(1,3-dimethyl-1H-pyrazol-4-yl)-3,4-dihydropyrido[4,3-d]pyrimidin-2(1H)-one]
>5	>5	CCN1C(=O)N(c2c(F)c(OC)cc(OC)c2F)Cc2cnc(-c3ccc(C(C)(C)C#N)nc3)cc21 [Example 26, 2-(5-(3-(2,6-difluoro-3,5-dimethoxyphenyl)-1-ethyl-2-oxo-1,2,3,4-tetrahydropyrido[4,3-d]pyrimidin-7-yl)pyridin-2-yl)-2-methylpropanenitrile]
>3	>5	CCN1C(=O)N(c2c(F)c(OC)cc(OC)c2F)Cc2cnc(-c3cnn(C)c3)cc21 [Example 169, 3-(2,6-difluoro-3,5-dimethoxyphenyl)-1-ethyl-7-(1-methyl-1H-pyrazol-4-yl)-3,4-dihydropyrido[4,3-d]pyrimidin-2(1H)-one]
>3	>10	CCn1cc(N2C(=O)N(c3c(F)c(OC)cc(OC)c3F)Cc3cnc(-c4cn(C)nc4C)cc32)cn1 [Example 131, 3-(2,6-difluoro-3,5-dimethoxyphenyl)-7-(1,3-dimethyl-1H-pyrazol-4-yl)-1-(1-ethyl-1H-pyrazol-4-yl)-3,4-dihydropyrido[4,3-d]pyrimidin-2(1H)-one]

Compound	FGFR1/FGFR3	FGFR4/FGFR3
COc1cc(OC)c(F)c(N2Cc3cnc(-c4ccccc4)cc3C3(CC3)C2=O)c1F [Example 17, 2′-(2,6-difluoro-3,5-dimethoxyphenyl)-6′-phenyl-1′H-spiro[cyclopropane-1,4′-[2,7]naphthyridin]-3′(2′H)-one]	>10	
